Data published in PubChem BioAssay (NCI).
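Each compound was tested at five concentrations against cells in 96-well plates for 48 hours. TGI is the concentration that stops growth completely.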

How the values were obtained:
Experiment in all cases: NCI tumour cell line growth inhibition, 48 h
HT29 colon = test system: HT29 colon
SK-MEL-2 melanoma = test system: SK-MEL-2 melanoma
SNB-19 CNS = test system: SNB-19 CNS
IGROV1 ovarian = test system: IGROV1 ovarian
MDA-MB-231 breast = test system: MDA-MB-231 breast
786-0 renal = test system: 786-0 renal
NCI-H460 lung = test system: NCI-H460 lung
MALME-3M melanoma = test system: MALME-3M melanoma
T-47D breast = test system: T-47D breast
NCI/ADR-RES ovarian = test system: NCI/ADR-RES ovarian
HL-60(TB) leukemia = test system: HL-60(TB) leukemia
SK-MEL-28 melanoma = test system: SK-MEL-28 melanoma
SR leukemia = test system: SR leukemia
M14 melanoma = test system: M14 melanoma
DU-145 prostate = test system: DU-145 prostate
CAKI-1 renal = test system: CAKI-1 renal
UO-31 renal = test system: UO-31 renal
BT-549 breast = test system: BT-549 breast
NCI-H226 lung = test system: NCI-H226 lung
MOLT-4 leukemia = test system: MOLT-4 leukemia
HOP-92 NSCLC = test system: HOP-92 NSCLC
SNB-75 CNS = test system: SNB-75 CNS
NCI-H23 lung = test system: NCI-H23 lung
ACHN renal = test system: ACHN renal
HCT-116 colon = test system: HCT-116 colon
MDA-MB-435 = test system: MDA-MB-435
SF-268 CNS = test system: SF-268 CNS
SK-OV-3 ovarian = test system: SK-OV-3 ovarian
U251 CNS = test system: U251 CNS
A549 NSCLC = test system: A549 NSCLC
HOP-62 NSCLC = test system: HOP-62 NSCLC
OVCAR-8 ovarian = test system: OVCAR-8 ovarian
CCRF-CEM leukemia = test system: CCRF-CEM leukemia
SF-295 CNS = test system: SF-295 CNS
OVCAR-4 ovarian = test system: OVCAR-4 ovarian
SF-539 CNS = test system: SF-539 CNS
SN12C renal = test system: SN12C renal
A498 renal = test system: A498 renal
KM12 colon = test system: KM12 colon
HS 578T breast = test system: HS 578T breast
NCI-H522 lung = test system: NCI-H522 lung
TK-10 renal = test system: TK-10 renal
UACC-257 melanoma = test system: UACC-257 melanoma
COLO 205 colon = test system: COLO 205 colon
SK-MEL-5 melanoma = test system: SK-MEL-5 melanoma
OVCAR-5 ovarian = test system: OVCAR-5 ovarian
HCT-15 colon = test system: HCT-15 colon
SW-620 colon = test system: SW-620 colon
RPMI-8226 leukemia = test system: RPMI-8226 leukemia
PC-3 prostate = test system: PC-3 prostate
RXF 393 renal = test system: RXF 393 renal
OVCAR-3 ovarian = test system: OVCAR-3 ovarian
LOX IMVI melanoma = test system: LOX IMVI melanoma
MCF7 breast = test system: MCF7 breast
UACC-62 melanoma = test system: UACC-62 melanoma
K-562 leukemia = test system: K-562 leukemia
HCC-2998 colon = test system: HCC-2998 colon
EKVX NSCLC = test system: EKVX NSCLC

`COC1C=COC2(C)Oc3c(C)c(O)c4c(O)c(c(C5SCCS5)c(O)c4c3C2=O)NC(=O)/C(C)=C\C=CC(C)C(O)C(C)C(O)C(C)C(OC(C)=O)C1C` (configuration not stated) showed a TGI (HT29 colon) of 13 µM, a TGI (SK-MEL-2 melanoma) of 24.6 µM and a TGI (SNB-19 CNS) of 17.7 µM. The TGI (IGROV1 ovarian) was 22.4 µM, the TGI (MDA-MB-231 breast) was 18.9 µM and the TGI (786-0 renal) was 48.4 µM. The TGI (NCI-H460 lung) was 18 µM, the TGI (MALME-3M melanoma) was 26.7 µM and the TGI (T-47D breast) was 11.7 µM. For the same compound, the TGI (NCI/ADR-RES ovarian) was 34.6 µM, the TGI (HL-60(TB) leukemia) was 12.5 µM and the TGI (SK-MEL-28 melanoma) was 20.8 µM. For the same compound, the TGI (SR leukemia) was 7.14 µM, the TGI (M14 melanoma) was 27.5 µM and the TGI (DU-145 prostate) was 13.1 µM. The TGI (CAKI-1 renal) was 22.8 µM, the TGI (UO-31 renal) was 26.7 µM and the TGI (BT-549 breast) was 16.2 µM. The TGI (NCI-H226 lung) was 21.8 µM, the TGI (MOLT-4 leukemia) was 4.43 µM and the TGI (HOP-92 NSCLC) was 26.1 µM. For the same compound, the TGI (SNB-75 CNS) was 20.5 µM, the TGI (NCI-H23 lung) was 18.4 µM and the TGI (ACHN renal) was 10.7 µM. It also gave a TGI (HCT-116 colon) of 48.7 µM, a TGI (MDA-MB-435) of 16.1 µM and a TGI (SF-268 CNS) of 32 µM. The TGI (SK-OV-3 ovarian) was 27.7 µM, the TGI (U251 CNS) was 14.5 µM and the TGI (A549 NSCLC) was 22.4 µM. It also gave a TGI (HOP-62 NSCLC) of 46 µM, a TGI (OVCAR-8 ovarian) of 26 µM and a TGI (CCRF-CEM leukemia) of 5.33 µM. For the same compound, the TGI (SF-295 CNS) was 17.6 µM, the TGI (OVCAR-4 ovarian) was 20.5 µM and the TGI (SF-539 CNS) was 20.9 µM. It also gave a TGI (SN12C renal) of 10.1 µM, a TGI (A498 renal) of 26.5 µM and a TGI (KM12 colon) of 30.6 µM. For the same compound, the TGI (HS 578T breast) was 40.6 µM, the TGI (NCI-H522 lung) was 24.2 µM and the TGI (TK-10 renal) was 14.2 µM. The TGI (UACC-257 melanoma) was 17.8 µM, the TGI (COLO 205 colon) was 6.79 µM and the TGI (SK-MEL-5 melanoma) was 20.8 µM. It also gave a TGI (OVCAR-5 ovarian) of 27.8 µM, a TGI (HCT-15 colon) of 21.8 µM and a TGI (SW-620 colon) of 20.1 µM. The TGI (RPMI-8226 leukemia) was 8.58 µM, the TGI (PC-3 prostate) was 20 µM and the TGI (RXF 393 renal) was 24.1 µM. The TGI (OVCAR-3 ovarian) was 20.4 µM, the TGI (LOX IMVI melanoma) was 4.57 µM and the TGI (MCF7 breast) was 24.2 µM. It also gave a TGI (UACC-62 melanoma) of 19.2 µM.
In the case of `O=CC1C(Cl)=Nc2nc3ccccc3n2C1c1ccccc1` (configuration not stated), the TGI (HT29 colon) is reported as 37.7 µM, the TGI (SK-MEL-2 melanoma) is reported as 27.3 µM and the TGI (SNB-19 CNS) is reported as greater than 100 µM. For the same compound, the TGI (IGROV1 ovarian) was 43.8 µM, the TGI (MDA-MB-231 breast) was 38.6 µM and the TGI (786-0 renal) was 29.5 µM. The TGI (NCI-H460 lung) was greater than 100 µM, the TGI (MALME-3M melanoma) was 52.5 µM and the TGI (T-47D breast) was 41.2 µM. For the same compound, the TGI (NCI/ADR-RES ovarian) was 65.6 µM, the TGI (HL-60(TB) leukemia) was 58.3 µM and the TGI (SK-MEL-28 melanoma) was 30.3 µM. For the same compound, the TGI (SR leukemia) was 14.4 µM, the TGI (M14 melanoma) was 64.6 µM and the TGI (DU-145 prostate) was 31.4 µM. For the same compound, the TGI (CAKI-1 renal) was 46.6 µM, the TGI (UO-31 renal) was 48.4 µM and the TGI (BT-549 breast) was 29 µM. For the same compound, the TGI (NCI-H226 lung) was 38.1 µM, the TGI (HOP-92 NSCLC) was 25.5 µM and the TGI (SNB-75 CNS) was 33.7 µM. It also gave a TGI (NCI-H23 lung) of 56.6 µM, a TGI (ACHN renal) of 33.3 µM and a TGI (HCT-116 colon) of 70.5 µM. It also gave a TGI (MDA-MB-435) greater than 100 µM, a TGI (SF-268 CNS) of 37.2 µM and a TGI (K-562 leukemia) of 37.3 µM. For the same compound, the TGI (U251 CNS) was 33.7 µM, the TGI (A549 NSCLC) was 76.6 µM and the TGI (HOP-62 NSCLC) was 44.2 µM. For the same compound, the TGI (OVCAR-8 ovarian) was 52.9 µM, the TGI (CCRF-CEM leukemia) was 63.1 µM and the TGI (SF-295 CNS) was greater than 100 µM. It also gave a TGI (OVCAR-4 ovarian) of 44 µM, a TGI (SF-539 CNS) of 34 µM and a TGI (SN12C renal) of 44.8 µM. For the same compound, the TGI (A498 renal) was 23 µM, the TGI (HCC-2998 colon) was 34.8 µM and the TGI (KM12 colon) was 51.4 µM. The TGI (HS 578T breast) was 25.4 µM, the TGI (NCI-H522 lung) was 27.3 µM and the TGI (TK-10 renal) was 51.4 µM. It also gave a TGI (UACC-257 melanoma) of 58.2 µM, a TGI (COLO 205 colon) of 58.9 µM and a TGI (SK-MEL-5 melanoma) of 45.5 µM. The TGI (OVCAR-5 ovarian) was 79.6 µM, the TGI (HCT-15 colon) was 30.9 µM and the TGI (SW-620 colon) was 40.2 µM. For the same compound, the TGI (RPMI-8226 leukemia) was 43.8 µM, the TGI (PC-3 prostate) was 40.7 µM and the TGI (EKVX NSCLC) was 64.6 µM. For the same compound, the TGI (RXF 393 renal) was 30.9 µM, the TGI (OVCAR-3 ovarian) was 43.2 µM and the TGI (LOX IMVI melanoma) was 29 µM. For the same compound, the TGI (MCF7 breast) was 42.7 µM and the TGI (UACC-62 melanoma) was 50 µM.
Compound `CN(C)c1ccc(/C=N/c2nc3cc4sc(/N=C/c5ccc(N(C)C)cc5)nc4cc3s2)cc1` has a TGI (HT29 colon) greater than 100 µM, a TGI (SK-MEL-2 melanoma) greater than 100 µM and a TGI (SNB-19 CNS) greater than 100 µM. For the same compound, the TGI (IGROV1 ovarian) was greater than 100 µM, the TGI (MDA-MB-231 breast) was greater than 100 µM and the TGI (786-0 renal) was greater than 100 µM. For the same compound, the TGI (NCI-H460 lung) was greater than 100 µM, the TGI (MALME-3M melanoma) was greater than 100 µM and the TGI (T-47D breast) was greater than 100 µM. For the same compound, the TGI (NCI/ADR-RES ovarian) was greater than 100 µM, the TGI (HL-60(TB) leukemia) was greater than 100 µM and the TGI (SK-MEL-28 melanoma) was greater than 100 µM. For the same compound, the TGI (SR leukemia) was greater than 100 µM, the TGI (M14 melanoma) was greater than 100 µM and the TGI (DU-145 prostate) was 99.1 µM. It also gave a TGI (CAKI-1 renal) greater than 100 µM, a TGI (UO-31 renal) greater than 100 µM and a TGI (BT-549 breast) greater than 100 µM. For the same compound, the TGI (NCI-H226 lung) was greater than 100 µM, the TGI (MOLT-4 leukemia) was greater than 100 µM and the TGI (HOP-92 NSCLC) was greater than 100 µM. It also gave a TGI (SNB-75 CNS) greater than 100 µM, a TGI (NCI-H23 lung) greater than 100 µM and a TGI (ACHN renal) greater than 100 µM. The TGI (HCT-116 colon) was greater than 100 µM, the TGI (MDA-MB-435) was greater than 100 µM and the TGI (SF-268 CNS) was greater than 100 µM. The TGI (SK-OV-3 ovarian) was greater than 100 µM, the TGI (K-562 leukemia) was greater than 100 µM and the TGI (U251 CNS) was greater than 100 µM. It also gave a TGI (A549 NSCLC) greater than 100 µM, a TGI (HOP-62 NSCLC) greater than 100 µM and a TGI (OVCAR-8 ovarian) greater than 100 µM. For the same compound, the TGI (CCRF-CEM leukemia) was greater than 100 µM, the TGI (SF-295 CNS) was greater than 100 µM and the TGI (OVCAR-4 ovarian) was greater than 100 µM. For the same compound, the TGI (SF-539 CNS) was greater than 100 µM, the TGI (SN12C renal) was greater than 100 µM and the TGI (A498 renal) was greater than 100 µM. It also gave a TGI (KM12 colon) greater than 100 µM, a TGI (HS 578T breast) of 92.4 µM and a TGI (NCI-H522 lung) greater than 100 µM. For the same compound, the TGI (TK-10 renal) was greater than 100 µM, the TGI (UACC-257 melanoma) was greater than 100 µM and the TGI (COLO 205 colon) was greater than 100 µM. The TGI (SK-MEL-5 melanoma) was greater than 100 µM, the TGI (OVCAR-5 ovarian) was greater than 100 µM and the TGI (HCT-15 colon) was greater than 100 µM. It also gave a TGI (SW-620 colon) greater than 100 µM, a TGI (RPMI-8226 leukemia) greater than 100 µM and a TGI (PC-3 prostate) greater than 100 µM. For the same compound, the TGI (EKVX NSCLC) was greater than 100 µM, the TGI (OVCAR-3 ovarian) was greater than 100 µM and the TGI (LOX IMVI melanoma) was greater than 100 µM. It also gave a TGI (MCF7 breast) greater than 100 µM and a TGI (UACC-62 melanoma) greater than 100 µM.
